From US9643928B2, “Crystalline forms of {[1-cyano-5-(4-chlorophenoxy)-4-hydroxy-isoquinoline-3-carbonyl]-amino}-acetic acid” (FIBROGEN, INC., priority 2013, dated 2017)
Entries after “also recorded” stand apart in the source; their conditions may differ.

Legend:
male Swiss Webster mice = test: Hemoglobin and hematocrit levels in mice after 1 week of intermittent oral dosing; type: in vivo
Experimental: Compound A (2, 6, 20, 60, 100 or 200 mg/kg as an oral gavage) or vehicle control were administered orally 3 times in 1 week on Monday, Wednesday, and Friday (4-8 male Swiss Webster mice/group). Three days after the last dose, all animals were euthanized and blood and serum were collected for complete blood counts (CBC) and serum chemistry.

[1] = tested on: Female Lewis rats challenged with peptidoglycan-polysaccharide polymers (PG-PS); test: Anemia of chronic disease model (PG-PS challenge); type: in vivo
Experimental: Female Lewis rats were challenged with peptidoglycan-polysaccharide polymers (PG-PS) to induce arthritis and anemia. Arthritis and anemia were allowed to develop for 28 days prior to initiation of treatment with Compound A (oral gavage, 8 or 20 mg/kg) or vehicle (n=8/group). Treatments were administered 3 times per week (Monday, Wednesday, and Friday), for 2 weeks. Progression of the model was monitored by measurement of paw swelling and hematology parameters. Blood samples were analyzed for hematopoiesis and iron parameters. The study also included three non-challenged control groups (n=5/group) that were injected with saline rather than PG-PS and then treated with vehicle or Compound A (8 or 20 mg/kg) as described for the PG-PS animals. […] In addition to anemia, PG-PS-challenged rats developed systemic inflammation and arthritis, as indicated by elevated white blood cell counts and swelling of the extremities.

[2] = tested on: Female Wistar rats with subtotal nephrectomy; test: Anemia induced by chronic kidney disease (5/6 nephrectomy, rat remnant kidney model); type: in vivo
Source text: Female Wistar rats underwent subtotal nephrectomy (⅚) surgery to induce chronic kidney disease by ligating the left kidney to infarct ⅔ of the kidney while the right kidney underwent simultaneous total nephrectomy. As a control, additional animals underwent a sham surgery, without nephrectomy. Five weeks after surgery, anemia and chronic kidney disease in the nephrectomized animals were confirmed by clinical pathology and animals were then assigned to one of three treatment groups (n=8/group) and treated with 0 (vehicle), 8 or 20 mg/kg Compound A. The sham group (n=8) received 0 mg/kg (vehicle). Starting 6 weeks after surgery, all animals were dosed TIW (on Monday, Wednesday, and Friday) via oral gavage for 2 weeks. Whole blood samples were collected 5, 7, and 8 weeks after surgery.

healthy male volunteers = test: Single oral dose in healthy male volunteers: erythropoietin, reticulocyte and hemoglobin levels; type: in vivo, human
Experimental: A single dose of Compound A (Form 2, capsules) was administered orally to healthy male volunteers. Compound A was provided in 1 mg and 5 mg capsules with the dose being rounded to the nearest whole capsule. In cohorts 1-4 the doses were 0.05 mg/kg, 0.15 mg/kg, 0.3 mg/kg and 0.4 mg/kg respectively. The time points for blood collection were: predose, 8, 12, 16, 20, 24, 30, 48, 72, 96 and 120 hours, days 8, 10, 12, and 15 post dose.

[3] = Maturation of Form 1 in water with or without seeds of Form 2, XRPD; type: physicochemical; details: 50° C./room temperature (4 h-cycles), 75% RH
Experimental: A suspension of a solid mixture of Form 1 and Form 2 (1:1) in water was incubated at 50° C./room temperature (4 h-cycles), and at 75% RH for four days. After this time, the solid was analysed by XRPD. The crystalline pattern matched Form 2, and no traces of Form 1 were detected in this analysis.
Form 1 was suspended in water and incubated at 50° C./room temperature (4 h-cycles), and at 75% RH. In this case, the transformation of Form 1 into Form 2 was slower.

[4] = Reflux of Form 1 in water, monitored by XRPD; type: physicochemical
Source text: Form 1 was refluxed in water and the crystallinity of the solid was monitored by XRPD.

[5] = Stability of Form 1 in water at 25° C., XRPD; type: physicochemical; details: six days
Experimental: Form 1 was suspended in water at 25° C., and the crystallinity of the solid was analysed by XRPD over a period of time.

[6] = Relative stability of Form 1 and Form 2 (summary of Example 3); type: physicochemical
Source text: The relative stability of Form 1 and Form 2 have been studied under different conditions (see Example 3).

[7] = Stability of solid forms in humidity chamber at 40° C. and 75% RH, re-analysed by XRPD; type: physicochemical; details: one week
Experimental: The solids were then stored in the humidity chamber at 40° C. and 75% RH for a week to assess their stability under these conditions, and re-analysed by XRPD.

[8] = all dose groups 2-200 mg/kg, oral gavage 3 times in 1 week, three days after last dose
[9] = 8 or 20 mg/kg oral 3 times per week for 2 weeks, statistically significant at 20 mg/kg
[10] = 8 and 20 mg/kg oral TIW, after 2 weeks of treatment
[11] = cohort 2, 0.15 mg/kg single oral dose
[12] = cohort 3, 0.3 mg/kg single oral dose

N#Cc1nc(C(=O)NCC(=O)O)c(O)c2c(Oc3ccc(Cl)cc3)cccc12 [Compound A, {[1-cyano-5-(4-chlorophenoxy)-4-hydroxy-isoquinoline-3-carbonyl]-amino}-acetic acid]
Mean hematocrit (HCT) compared to vehicle control (male Swiss Webster mice; [8]): significantly higher
Mean hemoglobin (Hb) compared to vehicle control (male Swiss Webster mice; [8]): significantly higher
Mean red blood counts (RBC) compared to vehicle control (male Swiss Webster mice; [8]): significantly higher
Hb levels increase (male Swiss Webster mice; lowest dose tested, 2 mg/kg, 1-week study): more than 1 g/dL
HCT decrease induced by PG-PS challenge [1, 9]: corrected
Hb decrease induced by PG-PS challenge [1, 9]: corrected
MCH decrease induced by PG-PS challenge [1, 9]: corrected
RBC decrease induced by PG-PS challenge [1, 9]: corrected
TIBC increase induced by PG-PS challenge [1, 9]: corrected
anemia associated with anemia of chronic disease ([1]; intermittent treatment): significantly alleviated
Hb, HCT and RBC (all three parameters) relative to non-anemic sham control group ([2]; 20 mg/kg oral TIW, 2 weeks): normalized
MCV in nephrectomized animals ([2]; 20 mg/kg, after 2 weeks of treatment): significantly higher
HCT compared to vehicle controls [2, 10]: significantly elevated
Hb compared to vehicle controls [2, 10]: significantly elevated
RBC compared to vehicle controls [2, 10]: significantly elevated
MCH values in nephrectomized animals ([2]; 8 and 20 mg/kg, not significant): higher
anemia associated with 5/6 nephrectomy ([2]; intermittent treatment for 2 weeks): corrected
change in mean hemoglobin levels (healthy male volunteers; Cohort 1, 0.05 mg/kg, Day 0 to Day 8): did not change
Reticulocyte values (% baseline ± SD) (healthy male volunteers; Cohort 1, 0.05 mg/kg, Day 3): 104 ± 8 % baseline
Reticulocyte values (% baseline ± SD) (healthy male volunteers; Cohort 1, 0.05 mg/kg, Day 5): 111 ± 10 % baseline
Reticulocyte values (% baseline ± SD) (healthy male volunteers; Cohort 1, 0.05 mg/kg, Day 8): 120 ± 20 % baseline
Reticulocyte values (% baseline ± SD) (healthy male volunteers; Cohort 2, 0.15 mg/kg, Day 3): 111 ± 19 % baseline
Reticulocyte values (% baseline ± SD) (healthy male volunteers; Cohort 2, 0.15 mg/kg, Day 5): 121 ± 22 % baseline
Reticulocyte values (% baseline ± SD) (healthy male volunteers; Cohort 3, 0.3 mg/kg, Day 3): 127 ± 3 % baseline
Reticulocyte values (% baseline ± SD) (healthy male volunteers; Cohort 3, 0.3 mg/kg, Day 5): 141 ± 22 % baseline
Reticulocyte values (% baseline ± SD) (healthy male volunteers; Cohort 4, 0.4 mg/kg, Day 3): 163 ± 21 % baseline
Reticulocyte values (% baseline ± SD) (healthy male volunteers; Cohort 4, 0.4 mg/kg, Day 5): 134 ± 22 % baseline
time of peak erythropoietin levels (healthy male volunteers; cohort 1, 0.05 mg/kg single oral dose): approximately 16.8 hours
mean maximum plasma erythropoietin concentration (healthy male volunteers; cohort 1, 0.05 mg/kg single oral dose, baseline mean 11.4 mIU/mL): 27.2 mIU/mL
median maximum erythropoietin concentration (healthy male volunteers; [11]): 81.7 mIU/ml
time of peak erythropoietin levels (mean) (healthy male volunteers; [11]): 14 h
time until mean erythropoietin levels trended back to baseline (healthy male volunteers; [11]): approximately 5 days
Reticulocyte values (% baseline ± SD) (healthy male volunteers; cohort 2, 0.15 mg/kg, Day 8): 180 ± 53 % baseline
mean hemoglobin increase (healthy male volunteers; cohort 2, 0.15 mg/kg, Day 8): 0.3 g/dL
average maximum erythropoietin concentration (healthy male volunteers; [12]): approximately 620 mIU/mL
time of peak erythropoietin levels (mean) (healthy male volunteers; [12]): 23 h
Reticulocyte values (% baseline ± SD) (healthy male volunteers; cohort 3, 0.3 mg/kg, Day 8): 231 ± 40 % baseline
mean hemoglobin increase (healthy male volunteers; cohort 3, 0.3 mg/kg, Day 8): 0.8 g/dL
median time to maximum EPO concentration (healthy male volunteers; cohort 4, 0.4 mg/kg single oral dose): 20 h
mean maximum plasma erythropoietin concentration (healthy male volunteers; cohort 4, 0.4 mg/kg single oral dose, pending re-analysis of one sample above upper limit of quantitation): 2,900 mIU/mL
Reticulocyte values (% baseline ± SD) (healthy male volunteers; cohort 4, 0.4 mg/kg, Day 8): 376 ± 60 % baseline
mean hemoglobin increase (healthy male volunteers; cohort 4, 0.4 mg/kg, Day 8): 0.7 g/dL
mean hemoglobin increase (healthy male volunteers; cohort 4, 0.4 mg/kg, Day 15): 1.1 g/dL

N#Cc1nc(C(=O)NCC(=O)O)c(O)c2c(Oc3ccc(Cl)cc3)cccc12 [Form 1, {[1-cyano-5-(4-chlorophenoxy)-4-hydroxy-isoquinoline-3-carbonyl]-amino}-acetic acid]
transformation on maturation in water without seeds of Form 2 ([3]; after 4 days): clear indication of Form 2 forming
transformation on maturation in water without seeds of Form 2 ([3]; after 15 days): completely turned to Form 2
crystallinity by XRPD on reflux in water ([4]; after 2.5 h): several new diffraction peaks corresponding to Form 2
crystallinity by XRPD on reflux in water ([4]; after 10 h at reflux): transformation of Form 1 into Form 2 was complete
changes in crystalline pattern in aqueous suspension [5]: remains unchanged; also recorded: No changes
hygroscopicity [6]: low hygroscopicity
stability to humidity [6]: stable
conversion of form on maturation in isopropyl acetate (IPAc) ([6]; 5° C., 25° C. and 50° C.): converts to Form 2
conversion of form on heating ([6]; heating above 200° C.): converts to Form 2

N#Cc1nc(C(=O)NCC(=O)O)c(O)c2c(Oc3ccc(Cl)cc3)cccc12 [XRPD 7]
Stability at 40° C./75% RH (form found by XRPD) [7]: changed into Form 2

N#Cc1nc(C(=O)NCC(=O)O)c(O)c2c(Oc3ccc(Cl)cc3)cccc12 [Form 2, {[1-cyano-5-(4-chlorophenoxy)-4-hydroxy-isoquinoline-3-carbonyl]-amino}-acetic acid]
Stability at 40° C./75% RH (form found by XRPD) [7]: remained unchanged; also recorded: Form 2
hygroscopicity [6]: low hygroscopicity
stability to humidity [6]: stable
relative thermodynamic stability ([6]; conditions investigated): thermodynamically more stable than Form 1
transformation of Form 2 into Form 1 ([6]; conditions investigated): has not been observed
